The values that follow come from patent US10829473B2, “Modulators of the cystic fibrosis transmembrane conductance regulator protein and methods of use” (AbbVie Overseas S.Á.R.L., priority 2017, dated 2020).

The target of this test is T1, F508delCFTR (Homo sapiens, UniProt P13569, DEL508-508).
T1 construct: expressed in transfected cells; host or cells: CFBE41o- human lung derived epithelial cells (CFBE41o-F508delCFTR-HRP), doxycycline-inducible
The experiment in a line: Cell Surface Expression-Horse Radish Peroxidase (CSE-HRP) Assay.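 On EC50 (with co-corrector): co-corrector chromenyl benzoic acid corrector at 2 or 3 µM.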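 On Maximum % activity (without co-corrector): % of on-plate positive control chromenyl benzoic acid corrector at 2 or 3 µM.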 The test is classed as cell-based. The conditions noted are these: for Maximum % activity (with co-corrector) / Emax: maximum at any tested concentration; for Emax: read-out: Maximum % activity (without co-corrector). Put shortly:
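Corrector compounds were given as 8-point 3-fold series from 20 or 30 μM, with or without a 2 μM co-corrector, for 18-24 h at 33 °C. Surface HRP was read by luminol luminescence as % of positive control; variable-Hill-slope sigmoidal fitting gave EC50 from triplicate plates.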

Setting [1] is: test compound alone, without co-corrector, read-out: EC50 (without co-corrector).
[2] abbreviates: with co-corrector, read-out: EC50 (with co-corrector).
Setting [3] is: test compound with co-corrector.
[4] abbreviates: test compound with co-corrector, read-out: EC50 (with co-corrector).
Setting [5] is: test compound without co-corrector.
The mark [6] stands for this setting: test compound without co-corrector, read-out: EC50 (without co-corrector).

Like-named read-outs stand apart in the source and are kept apart here.

T1 sequence (P13569 with tags, fused parts or gaps DEL508-508): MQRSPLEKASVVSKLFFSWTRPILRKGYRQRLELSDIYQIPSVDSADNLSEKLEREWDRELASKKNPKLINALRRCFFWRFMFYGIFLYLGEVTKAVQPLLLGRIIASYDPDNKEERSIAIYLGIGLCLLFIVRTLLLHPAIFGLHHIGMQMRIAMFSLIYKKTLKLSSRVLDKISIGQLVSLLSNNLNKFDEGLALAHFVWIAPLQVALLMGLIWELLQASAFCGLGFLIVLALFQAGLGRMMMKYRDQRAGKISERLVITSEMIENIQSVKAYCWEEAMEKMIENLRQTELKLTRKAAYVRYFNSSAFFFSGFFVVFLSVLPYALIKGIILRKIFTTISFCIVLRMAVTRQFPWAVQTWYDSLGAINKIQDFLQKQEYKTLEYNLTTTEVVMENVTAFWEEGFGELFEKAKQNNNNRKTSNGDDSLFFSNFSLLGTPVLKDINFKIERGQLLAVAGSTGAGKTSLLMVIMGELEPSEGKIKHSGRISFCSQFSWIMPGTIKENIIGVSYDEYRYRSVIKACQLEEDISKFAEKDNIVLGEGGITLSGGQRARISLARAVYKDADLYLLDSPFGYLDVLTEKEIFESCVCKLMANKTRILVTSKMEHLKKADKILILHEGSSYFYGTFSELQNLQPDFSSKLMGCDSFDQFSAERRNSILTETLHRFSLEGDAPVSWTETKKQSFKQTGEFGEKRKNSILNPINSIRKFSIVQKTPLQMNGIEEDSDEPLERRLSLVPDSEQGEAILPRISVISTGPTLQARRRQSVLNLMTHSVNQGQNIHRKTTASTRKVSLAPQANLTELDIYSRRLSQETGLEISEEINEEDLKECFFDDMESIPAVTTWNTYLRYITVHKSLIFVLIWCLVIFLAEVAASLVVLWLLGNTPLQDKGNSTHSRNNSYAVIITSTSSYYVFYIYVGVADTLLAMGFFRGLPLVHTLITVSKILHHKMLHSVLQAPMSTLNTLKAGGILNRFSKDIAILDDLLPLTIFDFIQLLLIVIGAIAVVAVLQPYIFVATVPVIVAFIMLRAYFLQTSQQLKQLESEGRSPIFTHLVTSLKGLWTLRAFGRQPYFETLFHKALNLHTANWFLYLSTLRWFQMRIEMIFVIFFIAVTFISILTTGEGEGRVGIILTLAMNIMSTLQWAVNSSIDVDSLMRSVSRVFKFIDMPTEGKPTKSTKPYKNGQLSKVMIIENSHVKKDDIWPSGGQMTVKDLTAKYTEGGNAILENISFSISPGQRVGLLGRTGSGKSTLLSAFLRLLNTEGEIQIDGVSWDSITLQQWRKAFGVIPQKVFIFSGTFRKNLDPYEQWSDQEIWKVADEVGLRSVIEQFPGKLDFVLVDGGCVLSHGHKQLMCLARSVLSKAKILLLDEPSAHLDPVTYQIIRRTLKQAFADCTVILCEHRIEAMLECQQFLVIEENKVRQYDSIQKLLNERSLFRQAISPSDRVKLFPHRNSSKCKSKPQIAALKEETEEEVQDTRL

As usually defined, the EC50 is the concentration needed to bring the measured effect to its halfway point. Turning to `O=C(NS(=O)(=O)c1ccccc1Cl)C1(c2cccc(Cl)c2)CC1` [Example III-23, N-(2-chlorobenzene-1-sulfonyl)-1-(3-chlorophenyl)cyclopropane-1-carboxamide], the EC50 is, setting by setting: under setting [1], 3 to 10 µM; under setting [2], 3 to 10 µM. Moreover, the “Maximum % activity (with co-corrector)” value (with co-corrector) is listed as “+++ (≥350)”. Besides, the Emax (without co-corrector) fell in the range of 50 to 150%.

With `COc1ccccc1C1(C(=O)NS(=O)(=O)c2cccc3ncccc23)CCC1` [II-6], the concentration giving a half-maximal response (EC50) is 3 to 10 µM under setting [1] and under 3 µM under setting [2]. Moreover, the “Maximum % activity (with co-corrector)” value (with co-corrector) was “+++ (≥350)”. The Emax (without co-corrector) is over 150%.

On to `CC(C)COc1ccc(OC(C)C)c(C2(C(=O)NS(=O)(=O)c3cccc4ncccc34)CC2)n1` [Example GI-86, 1-{6-(2-methylpropoxy)-3-[(propan-2-yl)oxy]pyridin-2-yl}-N-(quinoline-5-sulfonyl)cyclopropane-1-carboxamide], for which, under setting [3], the “Maximum % activity (with co-corrector)” value was “+++ (≥350)”. Also, the EC50 was under 3 µM under setting [4] and under 3 µM under setting [6]. Moreover, the Emax under setting [5] was over 150%.

In the case of `CC(C)COc1ncc(C2CCC2)cc1C1(C(=O)NS(=O)(=O)c2cccc3[nH]ccc23)CC1` [Example GI-52, 1-[5-cyclobutyl-2-(2-methylpropoxy)pyridin-3-yl]-N-(1H-indole-4-sulfonyl)cyclopropane-1-carboxamide], the “Maximum % activity (with co-corrector)” value under setting [3] is given as “+++ (≥350)”. The EC50 is, setting by setting: under setting [4], under 3 µM; under setting [6], under 3 µM. The Emax under setting [5] is over 150%.

On to `O=C(NS(=O)(=O)Cc1ccccc1)C1(c2ccc(Cl)cc2)CC1` [Example III-114, 1-(4-chlorophenyl)-N-(phenylmethanesulfonyl)cyclopropane-1-carboxamide], for which the 50% effective concentration (EC50) reads like this: under setting [1], over 10 µM; under setting [2], 3 to 10 µM. In addition, the “Maximum % activity (with co-corrector)” value (with co-corrector) is “+ (<150)”. The Emax (without co-corrector) was under 50%.

On to `Cc1ccc(OC(C)C)c(C2(C(=O)NS(=O)(=O)c3cccc4ncccc34)CC2)c1` [Example I-77, 1-{5-methyl-2-[(propan-2-yl)oxy]phenyl}-N-(quinoline-5-sulfonyl)cyclopropane-1-carboxamide], for which the concentration giving a half-maximal response (EC50) is under 3 µM under setting [1] and under 3 µM under setting [2]. The “Maximum % activity (with co-corrector)” value (with co-corrector) is “+++ (≥350)”. The Emax (without co-corrector) was over 150%.

`Cc1ccccc1S(=O)(=O)NC(=O)C1(c2ccc(Cl)cc2Cl)CC1` [Example III-87, 1-(2,4-dichlorophenyl)-N-(2-methylbenzene-1-sulfonyl)cyclopropane-1-carboxamide]: the half-maximal effective concentration (EC50) was 3 to 10 µM under setting [1] and 3 to 10 µM under setting [2]. The “Maximum % activity (with co-corrector)” value (with co-corrector) was “+++ (≥350)”. Besides, the Emax (without co-corrector) is 50 to 150%.

In the case of `COc1nc(C(F)(F)F)ccc1C1(C(=O)NS(=O)(=O)c2cccc3ncccc23)CC1` [GII-10, 1-[2-methoxy-6-(trifluoromethyl)pyridin-3-yl]-N-(quinoline-5-sulfonyl)cyclopropane-1-carboxamide], under setting [3], the “Maximum % activity (with co-corrector)” value is recorded as “+++ (≥350)”. The EC50 by setting is: under setting [4], 3 to 10 µM; under setting [6], 3 to 10 µM. Also, the Emax under setting [5] is over 150%.
